# Measured values: ChEMBL document CHEMBL1201861, “Genomics of Drug Sensitity in Cancer screening data, Wellcome Trust Sanger Institute”
# Tests used:
# Assay in all cases: cells
# Type in all cases: functional, cell-based, Homo sapiens
# COR-L88 = settings: Homo sapiens, COR-L88;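 also: growth inhibition of COR-L88 cells, read out with a cell viability assay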
# Description: SANGER: Inhibition of human COR-L88 cell growth in a cell viability assay.
# CP66-MEL = settings: Homo sapiens, CP66-MEL;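 also: growth inhibition of CP66-MEL cells determined in a cell viability assay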
# Description: SANGER: Inhibition of human CP66-MEL cell growth in a cell viability assay.
# CTV-1 = settings: Homo sapiens, CTV-1;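 also: growth inhibition of the cell line, read out with a cell viability assay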
# Description: SANGER: Inhibition of human CTV-1 cell growth in a cell viability assay.
# D-247MG = settings: Homo sapiens, D-247MG
# Description: SANGER: Inhibition of human D-247MG cell growth in a cell viability assay.
# DMS-79 = settings: Homo sapiens, DMS-79;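 also: growth inhibition measured with a cell viability assay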
# Description: SANGER: Inhibition of human DMS-79 cell growth in a cell viability assay.
# DOHH-2 = settings: Homo sapiens, DOHH-2;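 also: growth inhibition of human DOHH-2 cells, read out with a cell viability assay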
# Description: SANGER: Inhibition of human DOHH-2 cell growth in a cell viability assay.
# EKVX = settings: Homo sapiens, EKVX;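 also: growth inhibition of human EKVX cells, read out with a cell viability assay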
# Description: SANGER: Inhibition of human EKVX cell growth in a cell viability assay.
# ES1 = settings: Homo sapiens, ES1;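 also: growth inhibition of ES1 cells, read out with a cell viability assay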
# Description: SANGER: Inhibition of human ES1 cell growth in a cell viability assay.
# EW-24 = settings: Homo sapiens, EW-24;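 also: human EW-24 cancer cell line, growth inhibition read out via a cell viability assay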
# Description: SANGER: Inhibition of human EW-24 cell growth in a cell viability assay.
# GB-1 = settings: Homo sapiens, GB-1;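 also: growth of GB-1 cells judged by a viability assay, IC50 marks the concentration inhibiting growth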
# Description: SANGER: Inhibition of human GB-1 cell growth in a cell viability assay.
# HCC1187 = settings: Homo sapiens, HCC1187;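 also: growth inhibition of HCC1187 cells, read out with a cell viability assay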
# Description: SANGER: Inhibition of human HCC1187 cell growth in a cell viability assay.
# HCC2157 = settings: Homo sapiens, HCC2157;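 also: growth inhibition of the cancer cell line, read out as cell viability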
# Description: SANGER: Inhibition of human HCC2157 cell growth in a cell viability assay.
# HD-MY-Z = settings: Homo sapiens, HD-MY-Z;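 also: growth inhibition of HD-MY-Z cells, read out with a cell viability assay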
# Description: SANGER: Inhibition of human HD-MY-Z cell growth in a cell viability assay.
# HEL = settings: Homo sapiens, HEL;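 also: growth inhibition of HEL cells, read out with a cell viability assay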
# Description: SANGER: Inhibition of human HEL cell growth in a cell viability assay.
# HOP-62 = settings: Homo sapiens, HOP-62;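 also: cell growth inhibition determined with a viability assay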
# Description: SANGER: Inhibition of human HOP-62 cell growth in a cell viability assay.
# HT-144 = settings: Homo sapiens, HT-144
# Description: SANGER: Inhibition of human HT-144 cell growth in a cell viability assay.
# IA-LM = settings: Homo sapiens, IA-LM;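 also: cell viability assay measuring growth inhibition of human IA-LM cells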
# Description: SANGER: Inhibition of human IA-LM cell growth in a cell viability assay.
# IST-MEL1 = settings: Homo sapiens, IST-MEL1;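 also: growth inhibition of the cell line, read out with a cell viability assay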
# Description: SANGER: Inhibition of human IST-MEL1 cell growth in a cell viability assay.
# KNS-81-FD = settings: Homo sapiens, KNS-81-FD;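 also: growth inhibition of KNS-81-FD cells, read out with a cell viability assay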
# Description: SANGER: Inhibition of human KNS-81-FD cell growth in a cell viability assay.
# L-363 = settings: Homo sapiens, L-363
# Description: SANGER: Inhibition of human L-363 cell growth in a cell viability assay.
# LU-139 = settings: Homo sapiens, LU-139
# Description: SANGER: Inhibition of human LU-139 cell growth in a cell viability assay.
# MS-1 = settings: Homo sapiens, MS-1;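 also: growth inhibition of MS-1 cells, read out by cell viability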
# Description: SANGER: Inhibition of human MS-1 cell growth in a cell viability assay.
# MSTO-211H = settings: Homo sapiens, MSTO-211H
# Description: SANGER: Inhibition of human MSTO-211H cell growth in a cell viability assay.
# NB5 = settings: Homo sapiens, NB5;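 also: growth inhibition of NB5 cells, read out as cell viability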
# Description: SANGER: Inhibition of human NB5 cell growth in a cell viability assay.
# NB6 = settings: Homo sapiens, NB6
# Description: SANGER: Inhibition of human NB6 cell growth in a cell viability assay.
# NB69 = settings: Homo sapiens, NB69;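 also: growth inhibition of NB69 cells, determined by a cell viability assay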
# Description: SANGER: Inhibition of human NB69 cell growth in a cell viability assay.
# NCI-H1092 = settings: Homo sapiens, NCI-H1092;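 also: cell growth inhibition measured with a cell viability assay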
# Description: SANGER: Inhibition of human NCI-H1092 cell growth in a cell viability assay.
# NCI-H1304 = settings: Homo sapiens, NCI-H1304;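 also: growth inhibition of the cancer cell line, measured in a cell viability assay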
# Description: SANGER: Inhibition of human NCI-H1304 cell growth in a cell viability assay.
# NCI-H209 = settings: Homo sapiens, NCI-H209;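 also: growth inhibition of human NCI-H209 cells, measured by a cell viability assay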
# Description: SANGER: Inhibition of human NCI-H209 cell growth in a cell viability assay.
# NCI-H526 = settings: Homo sapiens, NCI-H526;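 also: growth inhibition of the human NCI-H526 cell line, measured by a cell viability assay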
# Description: SANGER: Inhibition of human NCI-H526 cell growth in a cell viability assay.
# NCI-H69 = settings: Homo sapiens, NCI-H69;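 also: growth inhibition of the cell line, read out with a cell viability assay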
# Description: SANGER: Inhibition of human NCI-H69 cell growth in a cell viability assay.
# NCI-H747 = settings: Homo sapiens, NCI-H747;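 also: growth inhibition of human NCI-H747 cells, read out by a cell viability assay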
# Description: SANGER: Inhibition of human NCI-H747 cell growth in a cell viability assay.
# SNU-5 = settings: Homo sapiens, SNU-5;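 also: cell viability readout used to measure growth inhibition in human NCI-SNU-5 cells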
# Description: SANGER: Inhibition of human NCI-SNU-5 cell growth in a cell viability assay.
# NTERA-2-cl-D1 = settings: Homo sapiens, NTERA-2-cl-D1;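 also: inhibition of cell growth, measured with a cell viability assay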
# Description: SANGER: Inhibition of human NTERA-S-cl-D1 cell growth in a cell viability assay.
# OCUB-M = settings: Homo sapiens, OCUB-M;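 also: growth inhibition of the cancer cell line, read out through a cell viability assay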
# Description: SANGER: Inhibition of human OCUB-M cell growth in a cell viability assay.
# SCC-15 = settings: Homo sapiens, SCC-15;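 also: growth inhibition of SCC-15 cells, read out with a cell viability assay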
# Description: SANGER: Inhibition of human SCC-15 cell growth in a cell viability assay.
# SK-N-DZ = settings: Homo sapiens, SK-N-DZ;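 also: growth inhibition of the cancer cell line, read out through a viability assay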
# Description: SANGER: Inhibition of human SK-N-DZ cell growth in a cell viability assay.
# SK-N-FI = settings: Homo sapiens, SK-N-FI;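 also: cell viability assay measuring growth inhibition of human SK-N-FI cells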
# Description: SANGER: Inhibition of human SK-N-FI cell growth in a cell viability assay.
# SK-UT-1 = settings: Homo sapiens, SK-UT-1;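 also: growth inhibition of SK-UT-1 cells, measured by a cell viability assay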
# Description: SANGER: Inhibition of human SK-UT-1 cell growth in a cell viability assay.
# SW 962 = settings: Homo sapiens, SW 962;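 also: growth inhibition of human SW962 cells, read out by a cell viability assay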
# Description: SANGER: Inhibition of human SW962 cell growth in a cell viability assay.
# A3-KAW = settings: Homo sapiens, A3-KAW;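 also: growth inhibition of human A3-KAW cells, read out with a cell viability assay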
# Description: SANGER: Inhibition of human A3-KAW cell growth in a cell viability assay.
# AM-38 = settings: Homo sapiens, AM-38;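 also: growth inhibition of AM-38 cells of human origin, read out by a cell viability assay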
# Description: SANGER: Inhibition of human AM-38 cell growth in a cell viability assay.
# ATN-1 = settings: Homo sapiens, ATN-1;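 also: growth inhibition of human ATN-1 cells, read out with a cell viability assay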
# Description: SANGER: Inhibition of human ATN-1 cell growth in a cell viability assay.
# C8166 = settings: Homo sapiens, C8166;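 also: growth inhibition of human C8166 cells measured by a cell viability assay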
# Description: SANGER: Inhibition of human C8166 cell growth in a cell viability assay.
# TGBC1TKB = settings: Homo sapiens, TGBC1TKB;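 also: growth inhibition of TGBC1TKB cells, read out by a cell viability assay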
# Description: SANGER: Inhibition of human TGBC1TKB cell growth in a cell viability assay.
# TGW = settings: Homo sapiens, TGW;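 also: growth inhibition of human TGW cells, read out with a cell viability assay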
# Description: SANGER: Inhibition of human TGW cell growth in a cell viability assay.
# UACC-257 = settings: Homo sapiens, UACC-257
# Description: SANGER: Inhibition of human UACC-257 cell growth in a cell viability assay.
# VA-ES-BJ = settings: Homo sapiens, VA-ES-BJ;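 also: growth inhibition of the VA-ES-BJ cell line, read out by a cell viability assay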
# Description: SANGER: Inhibition of human VA-ES-BJ cell growth in a cell viability assay.
structure (smiles),measurement,setting,value
Cc1ccc(-c2c(C(=O)CCl)n(CCCO)c3ncnc(N)c23)cc1,IC50,COR-L88,> 4 µM
same,IC50,CP66-MEL,> 4 µM
same,IC50,CTV-1,> 4 µM
same,IC50,D-247MG,> 4 µM
same,IC50,DMS-79,> 4 µM
same,IC50,DOHH-2,2.7 µM
same,IC50,EKVX,> 4 µM
same,IC50,ES1,> 4 µM
same,IC50,EW-24,> 4 µM
same,IC50,GB-1,> 4 µM
same,IC50,HCC1187,> 4 µM
same,IC50,HCC2157,> 4 µM
same,IC50,HD-MY-Z,2.5 µM
same,IC50,HEL,> 4 µM
same,IC50,HOP-62,> 4 µM
same,IC50,HT-144,3.28 µM
same,IC50,IA-LM,3.21 µM
same,IC50,IST-MEL1,> 4 µM
same,IC50,KNS-81-FD,> 4 µM
same,IC50,L-363,> 4 µM
same,IC50,LU-139,> 4 µM
same,IC50,MS-1,> 4 µM
same,IC50,MSTO-211H,> 4 µM
same,IC50,NB5,> 4 µM
same,IC50,NB6,> 4 µM
same,IC50,NB69,> 4 µM
same,IC50,NCI-H1092,> 4 µM
same,IC50,NCI-H1304,> 4 µM
same,IC50,NCI-H209,> 4 µM
same,IC50,NCI-H526,> 4 µM
same,IC50,NCI-H69,> 4 µM
same,IC50,NCI-H747,> 4 µM
same,IC50,SNU-5,> 4 µM
same,IC50,NTERA-2-cl-D1,> 4 µM
same,IC50,OCUB-M,> 4 µM
same,IC50,SCC-15,> 4 µM
same,IC50,SK-N-DZ,> 4 µM
same,IC50,SK-N-FI,> 4 µM
same,IC50,SK-UT-1,> 4 µM
same,IC50,SW 962,3.66 µM
same,IC50,A3-KAW,> 4 µM
same,IC50,AM-38,> 4 µM
same,IC50,ATN-1,> 4 µM
same,IC50,C8166,> 4 µM
same,IC50,TGBC1TKB,> 4 µM
same,IC50,TGW,> 4 µM
same,IC50,UACC-257,> 4 µM
same,IC50,VA-ES-BJ,> 4 µM
COc1cc2ncn(-c3cc(OCc4ccccc4C(F)(F)F)c(C(N)=O)s3)c2cc1OC [GW843682X],IC50,COR-L88,0.0784 µM
same,IC50,CP66-MEL,0.162 µM
same,IC50,CTV-1,0.0304 µM
same,IC50,D-247MG,> 0.256 µM
same,IC50,DMS-79,> 0.256 µM
same,IC50,DOHH-2,0.0608 µM
same,IC50,EKVX,> 0.256 µM
same,IC50,ES1,0.025 µM
same,IC50,EW-24,> 0.256 µM
same,IC50,GB-1,0.0275 µM
same,IC50,HCC1187,0.122 µM
same,IC50,HCC2157,> 0.256 µM
same,IC50,HD-MY-Z,0.0663 µM
same,IC50,HEL,0.0275 µM
same,IC50,HOP-62,0.0448 µM
same,IC50,HT-144,0.0164 µM
same,IC50,IA-LM,0.0112 µM
same,IC50,IST-MEL1,0.0288 µM
same,IC50,KNS-81-FD,> 0.256 µM
same,IC50,L-363,0.0812 µM
same,IC50,LU-139,0.0656 µM
same,IC50,MS-1,0.016 µM
same,IC50,MSTO-211H,> 0.256 µM
same,IC50,NB5,0.0862 µM
same,IC50,NB6,0.142 µM
same,IC50,NB69,> 0.256 µM
same,IC50,NCI-H1092,> 0.256 µM
same,IC50,NCI-H1304,0.105 µM
same,IC50,NCI-H209,0.225 µM
same,IC50,NCI-H526,0.0883 µM
same,IC50,NCI-H69,0.181 µM
same,IC50,NCI-H747,0.0767 µM
same,IC50,SNU-5,0.052 µM
same,IC50,NTERA-2-cl-D1,0.0174 µM
same,IC50,OCUB-M,0.0122 µM
same,IC50,SCC-15,> 0.256 µM
same,IC50,SK-N-DZ,0.0374 µM
same,IC50,SK-N-FI,0.232 µM
same,IC50,SK-UT-1,0.0237 µM
same,IC50,SW 962,0.0422 µM
same,IC50,A3-KAW,0.0517 µM
same,IC50,AM-38,> 0.256 µM
same,IC50,ATN-1,0.0241 µM
same,IC50,C8166,> 0.256 µM
same,IC50,TGBC1TKB,0.0336 µM
same,IC50,TGW,0.0347 µM
same,IC50,UACC-257,0.13 µM
same,IC50,VA-ES-BJ,0.0227 µM
CC(=O)O[C@H]1C(=O)[C@@]2(C)[C@H]([C@H](OC(=O)c3ccccc3)[C@]3(O)C[C@H](OC(=O)[C@H](O)[C@@H](NC(=O)c4ccccc4)c4ccccc4)C(C)=C1C3(C)C)[C@]1(OC(C)=O)CO[C@@H]1C[C@@H]2O [PACLITAXEL],IC50,COR-L88,0.0593 µM
same,IC50,CP66-MEL,> 0.102 µM
same,IC50,CTV-1,0.0148 µM
same,IC50,D-247MG,> 0.102 µM
same,IC50,DMS-79,> 0.102 µM
same,IC50,DOHH-2,0.012 µM
same,IC50,EKVX,> 0.102 µM
same,IC50,ES1,0.0129 µM
same,IC50,EW-24,0.0648 µM
same,IC50,GB-1,0.036 µM
same,IC50,HCC1187,0.0192 µM
same,IC50,HCC2157,> 0.102 µM
same,IC50,HD-MY-Z,0.0116 µM
same,IC50,HEL,0.0414 µM
same,IC50,HOP-62,0.0128 µM
same,IC50,HT-144,0.008 µM
same,IC50,IA-LM,0.0028 µM
same,IC50,IST-MEL1,0.0262 µM
same,IC50,KNS-81-FD,> 0.102 µM
same,IC50,L-363,0.0135 µM
same,IC50,LU-139,0.0599 µM
same,IC50,MS-1,> 0.102 µM
same,IC50,MSTO-211H,> 0.102 µM
same,IC50,NB5,> 0.102 µM
same,IC50,NB6,> 0.102 µM
same,IC50,NB69,> 0.102 µM
same,IC50,NCI-H1092,> 0.102 µM
same,IC50,NCI-H1304,0.0521 µM
same,IC50,NCI-H209,0.0979 µM
same,IC50,NCI-H526,0.0289 µM
same,IC50,NCI-H69,0.0178 µM
same,IC50,NCI-H747,0.0293 µM
same,IC50,SNU-5,0.017 µM
same,IC50,NTERA-2-cl-D1,0.00209 µM
same,IC50,OCUB-M,0.00662 µM
same,IC50,SCC-15,> 0.102 µM
same,IC50,SK-N-DZ,0.0731 µM
same,IC50,SK-N-FI,> 0.102 µM
same,IC50,SK-UT-1,0.0048 µM
same,IC50,SW 962,0.00662 µM
same,IC50,A3-KAW,0.0735 µM
same,IC50,AM-38,> 0.102 µM
same,IC50,ATN-1,0.00609 µM
same,IC50,C8166,> 0.102 µM
same,IC50,TGBC1TKB,0.0175 µM
same,IC50,TGW,0.0861 µM
same,IC50,UACC-257,0.0485 µM
same,IC50,VA-ES-BJ,0.003 µM
